Assays:
BACE-1 = biological target: T1, BACE-1 (Homo sapiens, UniProt P56817); assay: In vitro BACE-1 enzyme inhibition assay (FRET kit); assay type: biochemical
T1 construct: purchased Sigma Aldrich
Procedure: BACE-1 (EC 3.4.23.46) activity inhibition was assayed using FRET (fluorescence resonance energy transfer) kit (Sigma Aldrich, New Delhi, India). With all reaction components at RT, 50 μM substrate was added to 75 μL assay buffer containing RES and AJM (25, 50, 100 μM) in the microtiter plate. Reaction was initiated by the addition of 0.03 U BACE-1 enzyme in the well and zero minute fluorescence was recorded (Ex 350 nm, Em 405 nm). After 2 h incubation in dark at 37 °C, reaction fluorescence was recorded every one hour for next three hours. Relative fluorescence inhibition was calculated from zero minute fluorescence reading as control. Three individual experiments were performed.

BuChE = biological target: T2, BuChE (Equus caballus, UniProt P81908); assay: biochemical; settings: mean ± SD, three replicate determinations
T2 construct: butyrylcholinesterase from equine serum; purchased Sigma Aldrich, India; host or cells: equine serum
Text: (§1) MAO-B inhibition kit by Biovision. BACE-1 activity assay kit by Sigma Aldrich. […] PC12 (rat pheochromocytoma) cell line was obtained from NCCS, Pune, India. All other reagents used were of analytical grade. All preparations used in tissue culture experiments were filtered through 0.45 µm Axiva 25 mm CA filter. Ethical approval was obtained from GGS Indrapratha University for all the cell culture work done in proper confined facilities.
(§2) Five microliters of enzyme (AChE and BuChE) solution at 0.03 U/mL final assay concentration; 200 μL of phosphate buffer (pH 8); 5 μL of DTNB (0.3 mM); and 5 μL of test compounds were pre-incubated for 15 min at RT. The reaction was initiated by adding 5 μL of substrate (ATChI and BuTChI) at a final concentration of 0.5 mM. The control for relative absorbance consisted of the buffer in place of the test compounds and the enzyme and substrate blank were devoid of enzyme and the substrate, respectively.

AChE = biological target: T3, AChE (Electrophorus electricus, UniProt O42275); assay: biochemical; settings: for SI (selectivity index): AChE selectivity over BuChE, IC50 BuChE/IC50 AChE; for IC50: mean ± SD, three replicate determinations
T3 construct: acetylcholinesterase from electric eel; purchased Sigma Aldrich, India
Text: as §1, §2

MAO-B = biological target: T4, MAO-B (Homo sapiens, UniProt P27338); assay: MAO-B inhibition assay (Biovision fluorometric kit); assay type: biochemical
T4 construct: purchased Biovision
T4 sequence (P27338 1-520): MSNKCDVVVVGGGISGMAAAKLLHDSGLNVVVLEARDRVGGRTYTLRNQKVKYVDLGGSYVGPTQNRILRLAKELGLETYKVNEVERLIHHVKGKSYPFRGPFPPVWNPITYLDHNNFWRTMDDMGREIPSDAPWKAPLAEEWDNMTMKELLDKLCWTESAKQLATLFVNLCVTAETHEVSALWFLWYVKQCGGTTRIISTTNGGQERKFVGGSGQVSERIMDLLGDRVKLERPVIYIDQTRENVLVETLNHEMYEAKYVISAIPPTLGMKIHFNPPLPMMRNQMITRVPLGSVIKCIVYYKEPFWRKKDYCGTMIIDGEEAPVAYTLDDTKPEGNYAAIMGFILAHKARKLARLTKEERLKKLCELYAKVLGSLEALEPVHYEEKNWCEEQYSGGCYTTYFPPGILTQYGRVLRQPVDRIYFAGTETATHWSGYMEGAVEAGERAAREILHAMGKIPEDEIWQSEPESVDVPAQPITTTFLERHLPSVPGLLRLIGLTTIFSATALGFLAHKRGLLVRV
Procedure: MAO-B (EC 1.4.3.4) activity inhibition was assayed using Biovision inhibition screening kit (fluorometric). With all reaction components at room temperature, 0.2 U enzyme was pre-incubated with compounds under study and incubated for 10 min. Working substrate was prepared fresh by adding developer and oxired probe with assay buffer according to kit instructions. Substrate was added to the reaction and incubated for 10 min; zero-minute fluorescence was recorded (Ex 535 nm, Em 587 nm) to serve as control for relative fluorescence inhibition calculation.

Aβ42 [1] = biological target: T5, Aβ42 (Homo sapiens, UniProt P05067); assay: ThT fluorescence assay of Aβ42 fibril formation (anti-aggregation); assay type: biochemical; design: Aβ42—Amyloid beta 1-42 residues; purchased Link biotech (named in a list that ends 'purchased from Sigma Aldrich, India'); settings: vs control (Aβ42 only), 48 h; for inhibition of Aβ42 aggregation (ThT fluorescence): at 44 μM
Procedure: Aβ42 samples were incubated with or without compounds at different concentrations, after 48 h of fibril formation samples from each experimental set were withdrawn and mixed with ThT in opaque micro titer plate. The reactions were then incubated in dark at 37 °C for 30 min for ThT probe to bind the formed amyloid fibrils. The ThT was excited at 450 nm and spectra were recorded from 400 to 650 nm.

Aβ42 [2] = biological target: T5, Aβ42; assay: Transmission electron microscopy of Aβ42 aggregates; design: Aβ42—Amyloid beta 1-42 residues; purchased Link biotech (named in a list that ends 'purchased from Sigma Aldrich, India'); settings: Aβ42 + 44 μM compound, 37 °C, 48 h; control: abundant long, branched, dense fibrils
Procedure: 5 μL Aβ42 prepared fibril samples (22 μM) Aβ42 alone and Aβ42 with RES and AJM) were loaded on carbon stabilized, formvar coated grid for 40 sec. Ashless filter paper was used to wipe out extra sample from the edges of the grid. Loaded grid was negatively stained with 1% uranyl acetate for 20 sec and air-dried. Grid was then examined and photographed on JEOL 2100F transmission electron microscope.

Aβ42 [3] = biological target: T5, Aβ42; assay: Congo red dye binding (red shift) assay with Aβ42 fibrils; settings: CR only 490 nm, Aβ42 only 530 nm
Procedure: Aβ42 alone sample was used as control. Samples were incubated at 37 °C at 260 rpm for 48 h in the shaker incubator.
Congo red (200 μM) was dissolved in a 50 mM phosphate buffer (pH 7.4) consisting of 50 mM NaCl and 10% ethanol and filtered through 0.45 µm CA membrane filter. The Aβ42 concentration was fixed at 10 µM in the reaction mixture. […] The absorbance spectra (400–650 nm) of the samples were recorded with a UV-visible spectrophotometer [27]. All experiments had three technological and three biological repeats.

PC12 cells [4] = assay: Neuroprotection against H2O2 induced oxidative stress cytotoxicity in PC12 cells (MTT assay); assay type: cell-based, rat; settings: compound 40 μM; H2O2 200 µM; negative control 31% viability
Procedure: Cell viability was determined through trypan blue dye exclusion assay and cells were seeded to 96 well tissue culture plate at a 5 × 10^5 cells/well concentration. Pre-incubation with compounds were given to PC12 cells prior to inducing H2O2 cytotoxicity for 18 h. MTT was added to the well at 5 mg/mL concentration and incubated in the dark for enzymatic reaction by live cells for 2 h. DMSO was added to well to dissolve formazan crystals and absorbance was recorded at 570 nm. PC12 cells relative survival was calculated compared to control (PC12 cells only).

PC12 cells [5] = assay: Aβ42 induced neurotoxicity in PC12 cells (MTT assay); settings: 24 h
Procedure: Cells were seeded in 96 well plate in log phase of growth at concentration 5 × 10^5 cells per well. […] MTT solution was added to the wells and incubated in dark, for the live cells to convert the tetrazolium salt in purple formazan crystals. The formazan crystals were dissolved using DMSO and absorbance was measured at 570 nm. Relative survival percentage of PC12 cells was calculated compared to control (PC12 cells only). All measurements were performed in triplicates and all experiments were repeated thrice individually.

Aβ42 [6] = biological target: T5, Aβ42; assay: Circular dichroism spectroscopy of Aβ42 secondary structure (BeStSel); assay type: biochemical; design: Aβ42—Amyloid beta 1-42 residues; purchased Link biotech (named in a list that ends 'purchased from Sigma Aldrich, India'); settings: for Secondary structure content: Others / Secondary structure content: α-helix / Secondary structure content: Turn / Secondary structure content: β-sheet (parallel) / Secondary structure content: β-sheet (antiparallel): Aβ42 22 μM + compound 22 μM, BeStSel from CD spectra; for Secondary structure content: Others / Secondary structure content: α-helix: Aβ42 control 0.0; for Secondary structure content: Turn: Aβ42 control 8.6; for Secondary structure content: β-sheet (parallel): Aβ42 control 16.5; for Secondary structure content: β-sheet (antiparallel): Aβ42 control 74.9; for inhibition in β-sheet formation: compared to control (Aβ42 only), CD, 48 h incubation
Procedure: Secondary structure of Aβ42 peptides were recorded as far UV circular dichroism spectra using Chirascan (Applied PhotoPhysics, New Delhi, India) instrument and software. 22 μM Aβ42 samples (22 μM Aβ42 alone and Aβ42 with RES and AJM) were mixed well ensuring a homogenous suspension and transferred to quartz cell for CD spectra scanning. CD spectra was recorded from 200–260 nm at RT using a bandwidth of 1.0 nm, times per point 0.5 sec, a step interval of 1 nm, and 10 mm path length. Five scans of each sample were measured and averaged. Averaged control buffer scans were subtracted from the sample spectra. The results of CD measurement were plotted as graph between measured ellipticity (millidegree) and wavelength (nm). The secondary structure contents (α-helix, β-sheet, turn, and random coil) of the Aβ42 peptide samples were estimated from the CD spectra using the CD Pro software. Relative percentage of reduced β-sheet content in Aβ42 samples treated with RES and AJM was calculated using BeStSel software.

T5 sequence (P05067 672-713 limits assumed): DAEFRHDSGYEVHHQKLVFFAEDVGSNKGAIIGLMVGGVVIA
T3 sequence (O42275 24-633): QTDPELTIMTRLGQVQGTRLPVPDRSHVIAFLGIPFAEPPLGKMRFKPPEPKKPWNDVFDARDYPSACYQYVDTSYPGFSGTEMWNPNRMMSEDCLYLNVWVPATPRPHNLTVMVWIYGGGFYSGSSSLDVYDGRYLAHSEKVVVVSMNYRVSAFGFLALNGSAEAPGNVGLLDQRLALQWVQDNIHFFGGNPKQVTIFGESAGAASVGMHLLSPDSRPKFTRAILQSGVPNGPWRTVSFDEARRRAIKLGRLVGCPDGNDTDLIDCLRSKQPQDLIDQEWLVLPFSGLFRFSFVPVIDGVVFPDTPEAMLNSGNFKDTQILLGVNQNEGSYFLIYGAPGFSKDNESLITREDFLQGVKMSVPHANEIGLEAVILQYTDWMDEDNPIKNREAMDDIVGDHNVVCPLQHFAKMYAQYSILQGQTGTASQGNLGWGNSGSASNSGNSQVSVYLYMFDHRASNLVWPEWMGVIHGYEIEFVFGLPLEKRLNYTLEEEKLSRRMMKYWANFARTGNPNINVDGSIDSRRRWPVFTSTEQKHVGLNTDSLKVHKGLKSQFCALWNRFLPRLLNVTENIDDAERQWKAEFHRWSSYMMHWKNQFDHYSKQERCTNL
T1 sequence (P56817 46-501): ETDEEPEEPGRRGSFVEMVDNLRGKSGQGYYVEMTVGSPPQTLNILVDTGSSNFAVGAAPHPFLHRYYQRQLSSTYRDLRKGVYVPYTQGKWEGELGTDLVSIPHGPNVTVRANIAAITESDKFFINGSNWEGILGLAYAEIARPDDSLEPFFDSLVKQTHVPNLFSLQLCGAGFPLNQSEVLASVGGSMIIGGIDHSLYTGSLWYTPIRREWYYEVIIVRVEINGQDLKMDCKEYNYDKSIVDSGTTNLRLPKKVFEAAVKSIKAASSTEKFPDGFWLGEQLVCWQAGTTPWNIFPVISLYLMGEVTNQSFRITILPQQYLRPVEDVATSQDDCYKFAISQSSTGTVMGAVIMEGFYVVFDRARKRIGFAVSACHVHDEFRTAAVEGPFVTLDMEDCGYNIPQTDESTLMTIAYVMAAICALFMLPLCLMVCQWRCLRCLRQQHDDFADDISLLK
T2 sequence (P81908 whole entry): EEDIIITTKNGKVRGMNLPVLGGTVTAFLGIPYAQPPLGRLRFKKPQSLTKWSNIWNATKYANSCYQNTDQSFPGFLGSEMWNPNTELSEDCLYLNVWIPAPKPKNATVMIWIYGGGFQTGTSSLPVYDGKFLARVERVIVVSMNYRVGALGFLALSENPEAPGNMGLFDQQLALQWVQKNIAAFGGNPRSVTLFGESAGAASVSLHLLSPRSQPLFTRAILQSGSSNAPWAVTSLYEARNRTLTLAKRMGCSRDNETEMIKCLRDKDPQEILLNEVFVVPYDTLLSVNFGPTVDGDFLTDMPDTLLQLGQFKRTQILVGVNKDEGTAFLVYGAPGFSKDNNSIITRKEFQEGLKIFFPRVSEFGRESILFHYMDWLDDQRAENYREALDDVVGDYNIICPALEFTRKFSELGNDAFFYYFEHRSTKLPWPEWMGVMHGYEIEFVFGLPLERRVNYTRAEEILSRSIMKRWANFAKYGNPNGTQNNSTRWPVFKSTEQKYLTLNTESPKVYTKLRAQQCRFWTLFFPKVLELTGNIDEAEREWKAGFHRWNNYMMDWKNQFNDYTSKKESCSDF

Compound	IC50 (BuChE) [µM]	SI (selectivity index) (AChE)	IC50 (AChE) [µM]	inhibition of Aβ42 aggregation (ThT fluorescence) (Aβ42 [1]) [%]	morphology of Aβ42 aggregates by TEM (Aβ42 [2])	Congo red absorbance wavelength (red shift) with Aβ42 (Aβ42 [3]; Aβ42 + compound 22 μM) [nm]	Congo red absorbance wavelength (red shift) with Aβ42 (Aβ42 [3]; Aβ42 + compound 44 μM) [nm]	survival of PC12 cells against H2O2 induced oxidative stress (MTT) (PC12 cells [4]) [%]	Secondary structure content: Others (Aβ42 [6]) [%]	Secondary structure content: α-helix (Aβ42 [6]) [%]	Secondary structure content: Turn (Aβ42 [6]) [%]	Secondary structure content: β-sheet (parallel) (Aβ42 [6]) [%]	Secondary structure content: β-sheet (antiparallel) (Aβ42 [6]) [%]	inhibition in β-sheet formation (Aβ42 [6]) [%]	survival of PC12 cells against Aβ42 cytotoxicity (MTT) (PC12 cells [5]; rat, 40 μM) [%]	also measured
COC(=O)C1=CO[C@@H](C)[C@H]2CN3CCc4c([nH]c5ccccc45)[C@@H]3C[C@H]12 [Ajmalicine]	5.44 ± 1.75	1.55	3.5 ± 1.41	57	shorter, loose, and less Aβ42 fibrils along with small oligomers	510	510	89	53.1	0.0	11.7	0.0	35.2	53		inhibition of BACE-1 activity (BACE-1; at 50 μM): 69%; AChE inhibition (AChE; at 50 μM): 90%; MAO-B inhibition (MAO-B; at 40 μM): 89%; survival of PC12 cells against Aβ42 cytotoxicity (MTT) (PC12 cells [5]; compound 40 μM, Aβ42 fibrils 40 μM): 67%
COC(=O)[C@H]1[C@H]2C[C@@H]3c4[nH]c5cc(OC)ccc5c4CCN3C[C@H]2C[C@@H](OC(=O)c2cc(OC)c(OC)c(OC)c2)[C@@H]1OC [Reserpine]	2.8 ± 1.84	1.65	1.7 ± 2.08		shorter, loose, and less Aβ42 fibrils along with small oligomers	510	510	93	54.9	0.0	17.8	0.0	27.3	64	92	inhibition at 50 µM (BACE-1): 47%; inhibition at 50 µM (AChE; read-out: AChE inhibition): 96%; inhibition at 40 µM (MAO-B): 89%; inhibition at 44 µM (Aβ42 [1]): 69%
N[C@@H](CCC(=O)N[C@@H](CS)C(=O)NCC(=O)O)C(=O)O [glutathione]								91								
NCCCS(=O)(=O)O [homotaurine]															58	
Tannic acid				85												
